“And” between values parts separate entries of the source, which are not always exact repeats. Equal entries are not always repeated. Inconclusive results and toxic doses are left out. Rule for the calls: active = survival T/C of 150% or more; inactive = T/C below 125% in these data.
Tested on: BDF1 mice, P388 leukemia ip, median survival T/C
Assay: NCI In Vivo Anticancer Drug Screen. Data for tumor model P388 Leukemia (intraperitoneal) in B6D2F1 (BDF1) mice
Conditions: endpoint: median survival time, higher = longer survival
How it was run: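 T/C = treated-group survival ÷ vehicle-control survival; tumour transplanted into mice before dosing.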

[1] = dose: 25.0 mg/kg/injection, schedule: Q01DX009 (ip), vehicle: saline
[2] = dose: 100.0 mg/kg/injection, schedule: Q04DX003 (ip), vehicle: saline
[3] = dose: 200.0 mg/kg/injection, schedule: Q04DX003 (ip), vehicle: saline
[4] = dose: 6.25 mg/kg/injection, schedule: Q01DX009 (ip), vehicle: saline
[5] = dose: 12.5 mg/kg/injection, schedule: Q01DX009 (ip), vehicle: saline
[6] = dose: 100.0 mg/kg/injection, schedule: Q04DX003 (ip), vehicle: gum acacia
[7] = dose: 25.0 mg/kg/injection, schedule: Q01DX009 (ip), vehicle: saline with Tween-80
[8] = dose: 50.0 mg/kg/injection, schedule: Q01DX009 (ip), vehicle: saline with Tween-80

Measured: T/C

CCCCNC=O
inactive: [1] 91 % of control | dose: 50.0 mg/kg/injection, schedule: Q01DX009 (ip), vehicle: saline 100 % of control | dose: 100.0 mg/kg/injection, schedule: Q01DX001 (ip), vehicle: saline 100 % of control | dose: 100.0 mg/kg/injection, schedule: Q01DX009 (ip), vehicle: saline 100 % of control and 104 % of control | [2] 95 % of control | dose: 200.0 mg/kg/injection, schedule: Q01DX001 (ip), vehicle: saline 100 % of control | dose: 200.0 mg/kg/injection, schedule: Q01DX009 (ip), vehicle: saline 104 % of control | [3] 95 % of control | dose: 400.0 mg/kg/injection, schedule: Q01DX001 (ip), vehicle: saline 100 % of control | dose: 400.0 mg/kg/injection, schedule: Q01DX009 (ip), vehicle: saline 104 % of control | dose: 400.0 mg/kg/injection, schedule: Q04DX003 (ip), vehicle: saline 104 % of control

COC(=O)C(CSCSC)NC(=O)/C=C/c1ccccc1Cl (stereo unspecified)
inactive: dose: 100.0 mg/kg/injection, schedule: Q04DX003 (ip), vehicle: saline with Tween-80 100 % of control | dose: 200.0 mg/kg/injection, schedule: Q04DX003 (ip), vehicle: saline with Tween-80 87 % of control and 104 % of control | dose: 400.0 mg/kg/injection, schedule: Q04DX003 (ip), vehicle: saline with Tween-80 90 % of control

O=[N+]([O-])[O-].OCCNCCNCC[OH2+].OCCNCCNCC[OH2+].[Cu+2]
inactive: [4] 97 % of control | [5] 100 % of control | [1] 88 % of control

Nc1cc(=O)n(Cc2ccco2)c(=S)[nH]1
inactive: dose: 50.0 mg/kg/injection, schedule: Q01DX005 (ip), vehicle: saline with Tween-80 93 % of control | dose: 100.0 mg/kg/injection, schedule: Q01DX005 (ip), vehicle: saline with Tween-80 102 % of control | dose: 200.0 mg/kg/injection, schedule: Q01DX005 (ip), vehicle: saline with Tween-80 100 % of control

COc1ccc(C(CCl)(CCl)c2ccc(OC)cc2)cc1
inactive: dose: 100.0 mg/kg/injection, schedule: Q01DX009 (ip), vehicle: gum acacia 116 % of control | [6] 87 % of control | dose: 200.0 mg/kg/injection, schedule: Q01DX009 (ip), vehicle: gum acacia 112 % of control | dose: 200.0 mg/kg/injection, schedule: Q04DX003 (ip), vehicle: gum acacia 104 % of control | dose: 400.0 mg/kg/injection, schedule: Q01DX009 (ip), vehicle: gum acacia 104 % of control | dose: 400.0 mg/kg/injection, schedule: Q04DX003 (ip), vehicle: gum acacia 95 % of control

CCOCCc1ccncc1
inactive: dose: 50.0 mg/kg/injection, schedule: Q04DX003 (ip), vehicle: saline 112 % of control | [2] 108 % of control | [3] 100 % of control

CCCCCCCCCCCC[N+](C)(C)CCC[N+](C)(C)CCCCCCCCCCCC
inactive: [4] 109 % of control | [5] 116 % of control

CC1OC(OC2CCCc3c(O)c4c(c(O)c32)C(=O)c2ccccc2C4=O)CC(N)C1O (stereo unspecified)
inactive: dose: 0.25 mg/kg/injection, schedule: Q01DX009 (ip), vehicle: water 110 % of control | dose: 0.5 mg/kg/injection, schedule: Q01DX009 (ip), vehicle: water 105 % of control | dose: 1.0 mg/kg/injection, schedule: Q01DX009 (ip), vehicle: water 98 % of control | dose: 2.0 mg/kg/injection, schedule: Q01DX009 (ip), vehicle: water 110 % of control and 115 % of control | dose: 4.0 mg/kg/injection, schedule: Q01DX009 (ip), vehicle: water 108 % of control and 113 % of control | dose: 8.0 mg/kg/injection, schedule: Q01DX009 (ip), vehicle: water 108 % of control | dose: 16.0 mg/kg/injection, schedule: Q01DX009 (ip), vehicle: water 105 % of control

CC(/C(=N/N(C)C)c1ccccc1)C(C)/C(=N\N(C)C)c1ccccc1 (stereo unspecified)
inactive: dose: 100.0 mg/kg/injection, schedule: Q04DX002 (ip), vehicle: saline with Tween-80 97 % of control | dose: 200.0 mg/kg/injection, schedule: Q04DX002 (ip), vehicle: saline with Tween-80 110 % of control | dose: 400.0 mg/kg/injection, schedule: Q04DX002 (ip), vehicle: saline with Tween-80 112 % of control

O=C(CC(=O)C(F)(F)F)c1csc2ccccc12
inactive: dose: 12.5 mg/kg/injection, schedule: Q01DX009 (ip), vehicle: saline with Tween-80 100 % of control | dose: 25.0 mg/kg/injection, schedule: Q01DX009 (ip), vehicle: gum acacia 112 % of control | [7] 112 % of control | dose: 25.0 mg/kg/injection, schedule: Q04DX003 (ip), vehicle: gum acacia 111 % of control | dose: 50.0 mg/kg/injection, schedule: Q01DX001 (ip), vehicle: Klucel (hydroxypropylcellulose) (HPC) 104 % of control | dose: 50.0 mg/kg/injection, schedule: Q01DX009 (ip), vehicle: gum acacia 120 % of control | [8] 91 % of control | dose: 50.0 mg/kg/injection, schedule: Q04DX003 (ip), vehicle: gum acacia 100 % of control | dose: 66.0 mg/kg/injection, schedule: Q01DX009 (ip), vehicle: gum acacia 107 % of control | dose: 66.0 mg/kg/injection, schedule: Q01DX009 (ip), vehicle: saline with Tween-80 120 % of control | dose: 75.0 mg/kg/injection, schedule: Q01DX009 (ip), vehicle: Klucel (hydroxypropylcellulose) (HPC) 115 % of control | dose: 100.0 mg/kg/injection, schedule: Q01DX001 (ip), vehicle: Klucel (hydroxypropylcellulose) (HPC) 113 % of control | [6] 107 % of control and 111 % of control | dose: 115.0 mg/kg/injection, schedule: Q01DX009 (ip), vehicle: Klucel (hydroxypropylcellulose) (HPC) 120 % of control | dose: 150.0 mg/kg/injection, schedule: Q01DX009 (ip), vehicle: gum acacia 100 % of control | dose: 200.0 mg/kg/injection, schedule: Q01DX001 (ip), vehicle: Klucel (hydroxypropylcellulose) (HPC) 86 % of control

COC1=C(OC)C23CCc4ccc(OC)c(O)c4C2(CCN3C)CC1=O (stereo unspecified)
inactive: dose: 50.0 mg/kg/injection, schedule: Q01DX010 (ip), vehicle: carboxymethylcellulose (CMC) 88 % of control | dose: 100.0 mg/kg/injection, schedule: Q01DX010 (ip), vehicle: carboxymethylcellulose (CMC) 100 % of control

O=[N+]([O-])c1ccc(Nc2ccc(Cl)c(Cl)c2)c2c1no[n+]2[O-]
inactive: dose: 17.5 mg/kg/injection, schedule: Q01DX009 (ip), vehicle: saline with Tween-80 88 % of control | dose: 35.0 mg/kg/injection, schedule: Q01DX009 (ip), vehicle: saline with Tween-80 92 % of control | dose: 70.0 mg/kg/injection, schedule: Q01DX009 (ip), vehicle: saline with Tween-80 88 % of control

Cc1ccc(S(=O)(=O)Nc2ccc([N+](=O)[O-])cc2[N+](=O)[O-])cc1
inactive: [7] 95 % of control | [8] 92 % of control

CCN(CC)Cc1cc(Nc2c3ccccc3nc3cc(Cl)ccc23)ccc1O
inactive: [5] 100 % of control | dose: 12.5 mg/kg/injection, schedule: Q04DX003 (ip), vehicle: saline sonified 104 % of control | [1] 100 % of control | dose: 25.0 mg/kg/injection, schedule: Q04DX003 (ip), vehicle: saline sonified 100 % of control | dose: 50.0 mg/kg/injection, schedule: Q04DX003 (ip), vehicle: saline sonified 104 % of control

O=C1C(Br)=CC(=C2C=C(Br)C(=O)C(Br)=C2)C=C1Br
inactive: dose: 50.0 mg/kg/injection, schedule: Q04DX003 (ip), vehicle: Klucel (hydroxypropylcellulose) (HPC) 113 % of control | dose: 100.0 mg/kg/injection, schedule: Q04DX003 (ip), vehicle: Klucel (hydroxypropylcellulose) (HPC) 122 % of control
